Assay results as given in patent publication US11512069B2, “TLR7/8 antagonists and uses thereof” (Merck Patent GmbH, priority 2016, dated 2022).

Biological target: T1, TLR7 (Homo sapiens, UniProt Q9NYK1)
T1 construct: expressed in transfected cells; host or cells: HEK cells carrying TLR7 and an NF-kB reporter read with Steady-Glo
T1 sequence (Q9NYK1 27-1049): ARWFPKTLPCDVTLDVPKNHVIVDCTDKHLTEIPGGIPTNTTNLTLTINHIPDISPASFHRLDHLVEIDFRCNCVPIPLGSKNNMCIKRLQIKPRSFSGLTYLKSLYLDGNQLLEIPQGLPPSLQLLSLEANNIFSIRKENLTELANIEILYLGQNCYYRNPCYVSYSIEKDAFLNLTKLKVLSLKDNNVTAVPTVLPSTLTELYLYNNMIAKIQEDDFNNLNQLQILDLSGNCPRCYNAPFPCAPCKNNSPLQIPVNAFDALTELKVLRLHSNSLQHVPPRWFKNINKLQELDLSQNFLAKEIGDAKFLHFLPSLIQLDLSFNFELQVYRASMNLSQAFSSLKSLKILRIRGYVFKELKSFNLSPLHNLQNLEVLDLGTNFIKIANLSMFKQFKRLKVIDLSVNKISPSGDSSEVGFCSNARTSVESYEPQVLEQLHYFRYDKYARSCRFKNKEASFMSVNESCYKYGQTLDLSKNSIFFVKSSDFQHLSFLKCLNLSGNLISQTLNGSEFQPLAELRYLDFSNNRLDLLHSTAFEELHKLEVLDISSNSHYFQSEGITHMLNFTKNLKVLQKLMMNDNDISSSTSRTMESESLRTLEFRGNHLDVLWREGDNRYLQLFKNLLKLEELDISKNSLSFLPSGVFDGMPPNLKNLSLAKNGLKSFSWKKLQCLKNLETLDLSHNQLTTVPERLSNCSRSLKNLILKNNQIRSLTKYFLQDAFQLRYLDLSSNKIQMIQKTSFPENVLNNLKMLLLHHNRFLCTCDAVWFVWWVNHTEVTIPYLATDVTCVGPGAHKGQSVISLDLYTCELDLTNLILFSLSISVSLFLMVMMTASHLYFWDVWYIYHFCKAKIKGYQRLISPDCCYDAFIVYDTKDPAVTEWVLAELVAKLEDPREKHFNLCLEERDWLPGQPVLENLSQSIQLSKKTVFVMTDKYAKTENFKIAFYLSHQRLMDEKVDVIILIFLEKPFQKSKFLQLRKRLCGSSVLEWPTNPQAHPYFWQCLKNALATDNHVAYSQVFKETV
Assay: HEK Cell Assay (TLR7/NFKb HEK reporter cells, Steady-Glo)
Assay type: cell-based
Settings: compound 30 min, then R*48 agonist 5 hours, Steady-Glo readout, read-out: Potency
How it was run: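 TLR7/NF-κB HEK reporter cells cultured 24 h, then pre-incubated 30 min with compound before adding R*48 agonist. Luciferase read by Steady-Glo luminescence after 5 h.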

| IC50 | Structure (SMILES) |
| --- | --- |
| 1000 to 20000 nM | C[C@H]1C[C@@H](NC(=O)CN(C)C)C[C@H](c2ccc(C#N)c3nccnc23)C1 (racemic) [Compound 132, N-[(1,cis-3,trans-5,cis)-3-(8-cyanoquinoxalin-5-yl)-5-methylcyclohexyl]-2-(dimethylamino)acetamide] |
| 1000 to 20000 nM | C[C@H]1C[C@H](c2ccc(C#N)c3ncccc23)CN(C(=O)CC2(N)CC2)C1 (relative stereo) [Compound 63, Trans-1-[2-(1-Amino-cyclopropyl)-acetyl]-5-methyl-piperidin-3-yl-quinoline-8-carbonitrile] |
| > 20000 nM | C[C@@H]1C[C@@H](c2ccc(C(F)(F)F)c3ncccc23)CN(C(=O)CCn2cccn2)C1 (relative stereo) [Compound 13] |
| 1000 to 20000 nM | C[C@@H]1C[C@H](c2ccc(C#N)c3ncccc23)CN(C(=O)C2CCN(C)CC2)C1 (relative stereo) [Compound 39, cis-5-[5-Methyl-1-(1-methyl-piperidine-4-carbonyl)-piperidin-3-yl]-quinoline-8-carbonitrile] |
| 1000 to 20000 nM | C[C@@H]1C[C@@H](c2ccc(C#N)c3ncccc23)CN(CC(=O)NCCN2CCN(C)CC2)C1 (relative stereo) [Compound 73, trans-2-[3-(8-Cyano-quinolin-5-yl)-5-methyl-piperidin-1-yl]-N-[2-(4-methyl-piperazin-1-yl)-ethyl]-acetamide] |
| < 1000 nM | C[C@H]1C[C@@H](c2ccc(C#N)c3nccnc23)CN(C(=O)CC2CCN(C)CC2)C1 [Compound 102, 8-{(3S,5S)-5-Methyl-1-[2-(1-methyl-piperidin-4-yl)-acetyl]-piperidin-3-yl}-quinoxaline-5-carbonitrile] |
| > 20000 nM | C[C@H]1C[C@H](c2ccc(C#N)c3ncccc23)CN(CC(N)=O)C1 (relative stereo) [Compound 66] |
| > 20000 nM | COCCN[C@@H]1C[C@H](C)C[C@H](c2ccc(C(F)(F)F)c3ncccc23)C1 [Compound 152, (1R,3R,5S)—N-(2-methoxyethyl)-3-methyl-5-(8-(trifluoromethyl)quinolin-5-yl)cyclohexanamine] |
| < 1000 nM | Cc1ccc([C@@H]2C[C@@H](C)CN(C(=O)CC3CCN(C)CC3)C2)c2cccnc12 [Compound 80, 1-[(3R,5S)-3-Methyl-5-(8-methyl-quinolin-5-yl)-piperidin-1-yl]-2-(1-methyl-piperidin-4-yl)-ethanone] |
| < 1000 nM | C[C@H]1C[C@@H](NC(=O)CN2CCCCC2)C[C@@H](c2ccc(C#N)c3nccnc23)C1 (racemic) [Compound 157, N-[(cis-1,3,5)-3-(8-cyanoquinoxalin-5-yl)-5-methylcyclohexyl]-2-(piperidin-1-yl)acetamide] |
| 1000 to 20000 nM | C[C@H]1C[C@@H](c2ccc(C#N)c3ncccc23)CN(C(=O)CC2CCN(C)CC2)C1 [Compound 56] |
| 1000 to 20000 nM | C[C@@H]1C[C@H](c2ccc(OC(F)(F)F)c3ncccc23)CN(C(=O)CN2CCN(C)CC2)C1 [Compound 105, 2-(4-Methyl-piperazin-1-yl)-1-[(3R,5R)-3-methyl-5-(8-trifluoromethoxy-quinolin-5-yl)-piperidin-1-yl]-ethanone] |
| 1000 to 20000 nM | C[C@@H]1C[C@H](N)C[C@H](c2ccc(C#N)c3nccnc23)C1 [Compound 122, 8-((1R,3S,5S)-3-amino-5-methylcyclohexyl)quinoxaline-5-carbonitrile] |
| > 20000 nM | CC1C[C@@H](c2ccc(C#N)c3ncccc23)CN(C(=O)Cc2cccnc2)C1 (some centres unmarked) [Compound 21] |
| 1000 to 20000 nM | C[C@@H]1C[C@@H](c2cccc3ncccc23)CN(C(=O)NC2CCN(C)CC2)C1 [Compound 114, (3R,5S)-3-Methyl-5-quinolin-5-yl-piperidine-1-carboxylic acid (1-methyl-piperidin-4-yl)-amide] |

Continued, compound first:

| Structure (SMILES) | IC50 |
| --- | --- |
| C[C@@H]1C[C@H](c2ccc(C#N)c3ncccc23)CN(C(=O)C[C@@H]2[C@H]3CN(C)C[C@@H]23)C1 [Compound 78] | < 1000 nM |
| C[C@@H]1C[C@H](N)C[C@@H](c2ccc(C(F)(F)F)c3ncccc23)C1 [Compound 138, (1S,3S,5S)-3-methyl-5-(8-(trifluoromethyl)quinolin-5-yl)cyclohexanamine] | < 1000 nM |
| C[C@@H]1C[C@H](c2ccc(C#N)c3ncccc23)CN(C(=O)CC2CCN(C)C2)C1 (stereo partly drawn) [Compound 35, cis-5-Methyl-1-[2-(1-methyl-pyrrolidin-3-yl)-acetyl]-piperidin-3-yl-quinoline-8-carbonitrile] | < 1000 nM |
| COc1ncc([C@H]2C[C@@H](C)CN(C(=O)CC3CCN(C)CC3)C2)c2cccnc12 [Compound 89, 1-[(3R,5R)-3-(8-Methoxy-[1,7]naphthyridin-5-yl)-5-methyl-piperidin-1-yl]-2-(1-methyl-piperidin-4-yl)-ethanone] | 1000 to 20000 nM |
| C[C@@H]1C[C@H](c2ccc(C(F)(F)F)c3ncccc23)CN(C(=O)CC2CCN(C)CC2)C1 (racemic) [Compound 4, cis-2-(1-Methyl-piperidin-4-yl)-1-[3-methyl-5-(8-trifluoromethyl-quinolin-5-yl)-piperidin-1-yl]-ethanone] | < 1000 nM |
| C[C@H]1C[C@@H](N)C[C@H](c2ccc(C#N)c3nccnc23)C1 [Compound 123, 8-[(1R,3R,5R)-3-amino-5-methylcyclohexyl]quinoxaline-5-carbonitrile] | < 1000 nM |
| C[C@@H]1C[C@@H](c2ccc(C#N)c3ncccc23)CN(C(=O)CC2CCN(C)CC2)C1 [Compound 54, 5-{(3S,5R)-5-Methyl-1-[2-(1-methyl-piperidin-4-yl)-acetyl]-piperidin-3-yl}-quinoline-8-carbonitrile] | < 1000 nM |
| Cc1ccc([C@@H]2C[C@H](C)CN(C(=O)CC3CCN(C)CC3)C2)c2cccnc12 [Compound 82, 1-[(3S,5S)-3-Methyl-5-(8-methyl-quinolin-5-yl)-piperidin-1-yl]-2-(1-methyl-piperidin-4-yl)-ethanone] | 1000 to 20000 nM |
| C[C@@H]1C[C@H](c2ccc(C#N)c3ncccc23)CN(C(=O)CC2CCN(C)CC2)C1 [Compound 1] | < 1000 nM |
| C[C@H]1C[C@@H](NC(=O)[C@H](N)C(F)(F)F)C[C@@H](c2ccc(C#N)c3nccnc23)C1 (racemic) [Compound 144, (2S)-2-amino-N-((cis-1,3,5)-3-(8-cyanoquinoxalin-5-yl)-5-methylcyclohexyl)-3,3,3-trifluoropropanamide] | 1000 to 20000 nM |
| CC1CC(c2ccc(C#N)c3ncccc23)CN(CCC(N)=O)C1 (centres unmarked) [Compound 49, 3-[3-(8-Cyano-quinolin-5-yl)-5-methyl-piperidin-1-yl]-propionamide] | > 20000 nM |
| CC1CC(c2ccc(C(F)(F)F)c3ncccc23)CN(C(=O)CCN2CCN(C)CC2)C1 (stereo in doubt) [Compound 45, 3-(4-Methyl-piperazin-1-yl)-1-[(3S,5S)-3-methyl-5-(8-trifluoromethyl-quinolin-5-yl)-piperidin-1-yl]-propan-1-one] | 1000 to 20000 nM |
| CC(C)[C@H](O)C(=O)N[C@@H]1C[C@H](C)C[C@@H](c2ccc(C#N)c3nccnc23)C1 [Compound 127, (S)—N-((1R,3R,5R)-3-(8-cyanoquinoxalin-5-yl)-5-methylcyclohexyl)-2-hydroxy-3-methylbutanamide] | > 20000 nM |
| COCCN[C@@H]1C[C@H](C)C[C@@H](c2ccc(C(F)(F)F)c3nccnc23)C1 [Compound 149, (1R,3R,5R)—N-(2-methoxyethyl)-3-methyl-5-(8-(trifluoromethyl)quinoxalin-5-yl)cyclohexanamine] | 1000 to 20000 nM |
